Data on 31 molecules can be found in patent publication US7923004B2 (priority 2006, dated 2011).

What all share (format): cell-based
Series [1] deals with HCV genotype 1b replicon (Huh-Luc-Neo cells). Description: HCV Replicon Luciferase Assay. To be noted: Hepatitis C virus, Huh-Luc-Neo cells, genotype 1b, 72 h, read-out: HCV-1b Replicon Inhibition*, Luciferase (EC50).
Series [2] has the same test system. The series can be described thus: HCV Replicon RNA (Taqman) Assay, genotype 1b. To be noted: Hepatitis C virus, Huh-Luc-Neo cells, genotype 1b, HCV RNA, 72 h, read-out: HCV-1b Replicon Inhibition*, Taqman (EC50). A general note: In antiviral work, replicon cells carry a viral genome segment that copies itself.
Series [3] in a line: Cell Titer-Glo Cell Viability Assay, genotype 1b cells. To be noted: human, Huh-Luc-Neo (HCV genotype 1b replicon) cells, HCV genotype 1b assays, read-out: Cytotoxicity* (CC50). As to the method:
Cell Seeding and Compound Treatment: Huh-Luc-Neo (Genotype 1b) or En5-3/Htat2ANeo (Genotype 1a) cells are seeded at 5000-7000/well in an opaque-walled 96 plate with Growth Medium (DMEM phenol red free+PS+2 mM glutamine; 100 ul/well). The compounds to be tested for inhibition of cell viability are added to the experimental wells so as to generate a dose response curve (8-9 concentrations, 10 μl/well at 10× assay concentration) and the cells are then incubated (5% CO2, 37° C.) for 72 h.
Reagent Preparation and Assay: After completion of the incubation period the cell viability measurements are made using the Cell Titre Glo Assay (Promega) according to the manufacturer's recommended protocol. Briefly, the CellTiter-Glo Buffer is thawed and equilibrated to room temperature prior to use. The lyophilized CellTiter-Glo Substrate is also equilibrated to room temperature prior to use. 10 ml of CellTiter-Glo Buffer is then transferred to 1 vial of CellTiter-Glo Substrate and mixed gently with a Vortex. 100 μl of CellTiter-Glo Assay reagent (CellTiter-Glo Buffer+CellTiter-Glo Substrate Mixture) is added to each well. The well contents are mixed for 5 min. on an orbital shaker at room temperature to induce cell lysis and the luminescence is then measured using a luminometer.

The structures appear in SMILES notation.

As usually defined, the EC50 is the concentration that produces a half-maximal response. Broadly, the CC50 is the concentration that lowers cell viability or growth by half. For the molecule `Cc1ccc(O)c(-c2nn(C)cc2C#Cc2ccc(NC(=O)C3CCCCN3C(=O)C(NC(=O)OC(C)(C)C)c3ccccc3)cc2)c1` (stereo not drawn) [Compound 1], the EC50 in series [1] was 1 to 10 µM; in series [2], below 1 µM. For the same molecule, the CC50 at 72 h in series [3] is above 100 µM.

`Cc1ccc(O)c(-c2nn(C)cc2C#Cc2ccc(NC(=O)[C@H]3CCCCN3C(=O)[C@H](Cc3ccccc3)NC(=O)OC(C)(C)C)cc2)c1` [Compound 2]: the EC50 in series [1] and in series [2] was below 1 µM each time. In addition, the CC50 at 72 h in series [3] is above 100 µM.

`Cc1ccc(O)c(-c2nn(C)cc2C#Cc2ccc(NC(=O)C3CCCCN3C(=O)[C@H](Cc3cccnc3)NC(=O)OC(C)(C)C)cc2)c1` (stereo partly drawn) [Compound 3]: the EC50 in series [1] and in series [2] was below 1 µM in each case. Besides, in series [3], the CC50 at 72 h is above 100 µM.

In the case of `COc1ccc(C[C@H](NC(=O)OC(C)(C)C)C(=O)N2CCCCC2C(=O)Nc2ccc(C#Cc3cn(C)nc3-c3cc(C)ccc3O)cc2)cc1` (stereo partly drawn) [Compound 4], the EC50 in series [1] and in series [2] was below 1 µM in each case. Also, the CC50 at 72 h in series [3] is below 1 µM.

For the molecule `Cc1ccc(O)c(-c2nn(C)cc2C#Cc2ccc(NC(=O)C3CCCCN3C(=O)[C@H](Cc3ccc(F)cc3)NC(=O)OC(C)(C)C)cc2)c1` (stereo partly drawn) [Compound 5], the EC50 in series [1] and in series [2] was below 1 µM in each case. For the same molecule, in series [3], the CC50 at 72 h was above 100 µM.

As for `Cc1ccc(O)c(-c2nn(C)cc2C#Cc2ccc(NC(=O)C3CCCCN3C(=O)[C@H](Cc3ccc(Cl)cc3Cl)NC(=O)OC(C)(C)C)cc2)c1` (stereo partly drawn) [Compound 6], the EC50 in series [1] and in series [2] was below 1 µM in each case. Further, the CC50 at 72 h in series [3] was above 100 µM.

As to `Cc1ccc(O)c(-c2nn(C)cc2C#Cc2ccc(NC(=O)C3CCCCN3C(=O)[C@H](CCc3ccccc3)NC(=O)OC(C)(C)C)cc2)c1` (stereo partly drawn) [Compound 7A], the EC50 in series [1] (GETYPE1B) and in series [2] (GETYPE1B) was below 1 µM each time. In series [3], the CC50 at 72 h is 10 to 100 µM.

With `Cc1ccc(O)c(-c2nn(C)cc2C#Cc2ccc(NC(=O)C3CCCCN3C(=O)[C@H](Cc3ccccc3)NC(=O)CC3CCCC3)cc2)c1` (stereo partly drawn) [Compound 7], the EC50 in series [1] and in series [2] was below 1 µM each time. Also, the CC50 at 72 h in series [3] was above 100 µM.

Take `Cc1ccc(O)c(-c2nn(C)cc2C#Cc2ccc(NC(=O)C3CCCCN3C(=O)[C@H](Cc3ccccc3)NC(=O)CC(C)(C)C)cc2)c1` (stereo partly drawn) [Compound 8]: the EC50 in series [1] and in series [2] was below 1 µM each time. Further, the CC50 at 72 h in series [3] was 10 to 100 µM.

As for `Cc1ccc(O)c(-c2nn(C)cc2C#Cc2ccc(NC(=O)C3CCCCN3C(=O)[C@H](Cc3ccccc3)NC(=O)CC3CCCCC3)cc2)c1` (stereo partly drawn) [Compound 9], the EC50 in series [1] and in series [2] was below 1 µM throughout. Also, the CC50 at 72 h in series [3] is 10 to 100 µM.

As for `Cc1ccc(O)c(-c2nn(C)cc2C#Cc2ccc(NC(=O)C3CCCCN3C(=O)[C@H](Cc3ccccc3)NC(=O)C3CCCCC3)cc2)c1` (stereo partly drawn) [Compound 10], the EC50 in series [1] and in series [2] was below 1 µM in each case. In series [3], the CC50 at 72 h lay within 10 to 100 µM.

On to `Cc1ccc(OS(=O)(=O)C(F)(F)F)c(-c2nn(C)cc2C#Cc2ccc(NC(=O)C3CCCCN3C(=O)[C@H](Cc3ccccc3)NC(=O)OC(C)(C)C)cc2)c1` (stereo partly drawn) [Compound 11], for which the EC50 in series [1] and in series [2] was below 1 µM throughout. Besides, in series [3], the cytotoxic concentration (CC50) at 72 h is above 100 µM.

For `Cc1ccc(O)c(-c2nn(C)cc2C#Cc2ccc(NC(=O)C3CCCCN3C(=O)[C@H](Cc3ccco3)NC(=O)OC(C)(C)C)cc2)c1` (stereo partly drawn) [Compound 12A], the EC50 in series [1] (GETYPE1B) and in series [2] (GETYPE1B) was below 1 µM throughout. Besides, in series [3], the 50% cytotoxic concentration (CC50) at 72 h lay within 10 to 100 µM.

`Cc1ccc(O)c(-c2nn(C)cc2C#Cc2ccc(NC(=O)C3CCCCN3S(=O)(=O)c3cccs3)cc2)c1` (stereo not drawn) [Compound 12]: the EC50 in series [1] and in series [2] was below 1 µM throughout. Besides, in series [3], the CC50 at 72 h is above 100 µM.

For `Cc1ccc(O)c(-c2nn(C)cc2C#Cc2ccc(NC(=O)C3CCCCN3C(=O)[C@@H](NC(=O)OC(C)(C)C)C3CCCCC3)cc2)c1` (stereo partly drawn) [Compound 13], the EC50 in series [1] was 1 to 10 µM; in series [2] it was below 1 µM. In series [3], the CC50 at 72 h was above 100 µM.

For `Cc1ccc(O)c(-c2nn(C)cc2C#Cc2ccc(NC(=O)C3CCCCN3C(=O)[C@H](Cc3ccccc3)NC(=O)OC(C)(C)C)cc2)c1` (stereo partly drawn) [Compound 14], the EC50 in series [1] and in series [2] was below 1 µM in each case. Moreover, the CC50 at 72 h in series [3] was above 100 µM.

`Cc1ccc(O)c(-c2nn(C)cc2C#Cc2ccc(NC(=O)[C@@H]3CCCCN3C(=O)[C@@H](Cc3ccccc3)NC(=O)OC(C)(C)C)cc2)c1` [Compound 15]: the EC50 in series [1] and in series [2] was below 1 µM throughout. For the same molecule, the CC50 at 72 h in series [3] was above 100 µM.

`Cc1ccc(O)c(-c2nn(C)cc2C#Cc2ccc(NC(=O)[C@@H]3CCCCN3C(=O)[C@H](NC(=O)OC(C)(C)C)c3ccccc3)cc2)c1` [Compound 16]: the EC50 in series [1] and in series [2] was below 1 µM in each case. For the same molecule, in series [3], the CC50 at 72 h was above 100 µM.

As for `COc1ccccc1[C@@H](NC(=O)OC(C)(C)C)C(=O)N1CCOC[C@H]1C(=O)Nc1ccc(C#Cc2cn(C)nc2-c2cc(C#N)ccc2O)cc1` [Compound 22A], the EC50 in series [1] (GETYPE1B) and in series [2] (GETYPE1B) was below 1 µM each time. Moreover, the CC50 at 72 h in series [3] is above 100 µM.

With `Cn1cc(C#Cc2ccc(NC(=O)[C@@H]3CCCCN3C(=O)[C@H](NC(=O)OC(C)(C)C)c3ccccc3)cc2)c(-c2cc(Br)ccc2O)n1` [Compound 22], the EC50 in series [1] and in series [2] was below 1 µM throughout. Besides, in series [3], the CC50 at 72 h lay within 10 to 100 µM.

On to `Cc1ccc(O)c(-c2nn(C)cc2C#Cc2ccc(NC(=O)C3CCCCN3C(=O)[C@H](Cc3ccc(Cl)cc3)NC(=O)OC(C)(C)C)cc2)c1` (stereo partly drawn) [Compound 23], for which the EC50 in series [1] and in series [2] was below 1 µM throughout. The CC50 at 72 h in series [3] lay within 10 to 100 µM.

Take `Cc1ccc(O)c(-c2nn(C)cc2C#Cc2ccc(NC(=O)C3CCCCN3C(=O)[C@H](Cc3ccc(C(N)=O)cc3)NC(=O)OC(C)(C)C)cc2)c1` (stereo partly drawn) [Compound 24]: the EC50 in series [1] and in series [2] was below 1 µM each time. The CC50 at 72 h in series [3] lay within 10 to 100 µM.

Consider `Cc1ccc(O)c(-c2nn(C)cc2C#Cc2ccc(NC(=O)C3CCCCN3C(=O)[C@H](Cc3ccc(Br)cc3)NC(=O)OC(C)(C)C)cc2)c1` (stereo partly drawn) [Compound 26], for which the EC50 in series [1] and in series [2] was below 1 µM throughout. In series [3], the CC50 at 72 h was 10 to 100 µM.

For the molecule `Cc1ccc(O)c(-c2nn(C)cc2C#Cc2ccc(NC(=O)[C@@H]3CNCCN3C(=O)[C@H](NC(=O)OC(C)(C)C)c3ccccc3)cc2)c1` [Compound 27A], the EC50 in series [1] (GETYPE1B) and in series [2] (GETYPE1B) was below 1 µM throughout. In series [3], the CC50 at 72 h was in the range of 10 to 100 µM.

Take `Cc1ccc(O)c(-c2nn(C)cc2C#Cc2ccc(NC(=O)C3CCCCN3C(=O)[C@H](Cc3cccc(F)c3)NC(=O)OC(C)(C)C)cc2)c1` (stereo partly drawn) [Compound 27]: the EC50 in series [1] and in series [2] was below 1 µM each time. The CC50 at 72 h in series [3] was in the range of 10 to 100 µM.

For `CC(C)(C)OC(=O)N[C@@H](C(=O)N1CCOCC1C(=O)Nc1ccc(C#Cc2cn(CCO)nc2-c2cc(Cl)ccc2O)cc1)c1ccccc1` (stereo partly drawn) [Compound 30A], the EC50 in series [1] (GETYPE1B) and in series [2] (GETYPE1B) was below 1 µM throughout. The CC50 at 72 h in series [3] is above 100 µM.

Regarding `CCOC(=O)c1ccc(O)c(-c2nn(C)cc2C#Cc2ccc(NC(=O)[C@@H]3CCCCN3C(=O)[C@H](NC(=O)OC(C)(C)C)c3ccccc3)cc2)c1` [Compound 30], the EC50 in series [1] and in series [2] was below 1 µM throughout. The CC50 at 72 h in series [3] is above 100 µM.

On to `CCOC(=O)c1ccc(O)c(-c2nn(C)cc2C#Cc2ccc(NC(=O)[C@@H]3CCCCN3C(=O)[C@H](NC(=O)OC(C)(C)C)c3ccccc3OC)cc2)c1` [Compound 31], for which the EC50 in series [1] and in series [2] was below 1 µM throughout. For the same molecule, in series [3], the CC50 at 72 h is above 100 µM.

Turning to `CCOC(=O)c1ccc(O)c(-c2nn(C)cc2C#Cc2ccc(NC(=O)[C@@H]3CCCCN3C(=O)[C@H](NC(=O)OC(C)(C)C)c3ccsc3)cc2)c1` [Compound 33], the EC50 in series [1] and in series [2] was below 1 µM in each case. Moreover, in series [3], the CC50 at 72 h was above 100 µM.

With `Cn1cc(C#Cc2ccc(NC(=O)[C@@H]3COCCN3C(=O)[C@H](NC(=O)OC(C)(C)C)c3ccsc3)cc2)c(-c2cc(C#N)ccc2O)n1` [Compound 34], the EC50 in series [1] and in series [2] was below 1 µM each time. Moreover, the cytotoxic concentration (CC50) at 72 h in series [3] was above 100 µM.

Turning to `Cn1cc(C#Cc2ccc(NC(=O)[C@@H]3COCCN3C(=O)[C@H](NC(=O)OC(C)(C)C)c3ccccc3)cc2)c(-c2cc(C#N)ccc2O)n1` [Compound 37], the EC50 in series [1] and in series [2] was below 1 µM in each case. In addition, the CC50 at 72 h in series [3] is above 100 µM.
